From patent US20110305784A1, “Fractionated products obtained from gamboge resin, and medical uses of the same” (priority 2010, published 2011)
In brackets after ≈: the same amount, converted by molar mass.

Columns and labels:
[1] = test system: Human umbilical venal epithelial cell (HUVEC); assay: in vitro; conditions: HUVEC; for IC50: Homo sapiens, read-out: IC50 (50% inhibition concentration)
Text: (§1) The in vitro anti-cancer test was primarily used to detect the effect of a candidate drug on cancer cell proliferation. The working principle involved therein is the ability of viable cells to shift alamarBlue (AbD Serotec, UK) from its originally non-fluorescent oxidized state (non-fluorescent, blue) to a reduced form (fluorescent, red) having fluorescence via metabolic reaction. According to the fluorescent data result generated by the alamarBlue reagent thus obtained, the proliferation of the viable cells and cell activity can be quantified for detection.
(§2) In the in vitro anti-cancer tests, a candidate drug was tested at 5 different concentrations of 0.01, 0.1, 1, 10, and 100 μg/ml, and six human cancer cell lines and a normal human cell line were used (see Table 10).

[2] = test system: Human colon adenocarcinoma cell HT-29; assay: cells; conditions: for IC50: HT-29, read-out: IC50 (50% inhibition concentration); for CC50: HT-29, read-out: LC50 (50% lethal concentration)
Text: as §1, §2

[3] = test system: Human breast adenocarcinoma cell MCF7; assay: cells; conditions: for IC50: MCF7, read-out: IC50 (50% inhibition concentration); for CC50: MCF7, read-out: LC50 (50% lethal concentration)
Text: as §1, §2

[4] = test system: Human histocytic lymphoma cell U937; assay: cells; conditions: for IC50: U-937, read-out: IC50 (50% inhibition concentration); for CC50: U-937, read-out: LC50 (50% lethal concentration)
Text: as §1, §2

[5] = test system: Human promyelocytic leukemia cell HL-60; assay: cells; conditions: for IC50: HL-60, read-out: IC50 (50% inhibition concentration); for CC50: HL-60, read-out: LC50 (50% lethal concentration)
Text: as §1, §2

[6] = test system: Human lung carcinoma cell A549; assay: cells; conditions: for IC50: A549, read-out: IC50 (50% inhibition concentration); for CC50: A549, read-out: LC50 (50% lethal concentration)
Text: as §1, §2

[7] = test system: Human hepatocellular carcinoma cell HepG2; assay: cells; conditions: for IC50: HepG2, read-out: IC50 (50% inhibition concentration); for CC50: HepG2, read-out: LC50 (50% lethal concentration)
Text: as §1, §2

[8] = in vitro; conditions: human
Text: as §1, §2

C=C(C)C1CC[C@]2(C)C[C@H]1c1c(O)c3c(c(CC=C(C)C)c1O2)O[C@]12C(=C[C@@H]4CC1C(C)(C)O[C@]2(/C=C/C(C)C(=O)O)C4=O)C3=O (stereo partly drawn) [Gh-2508, β-gambogellic acid]
LC50 (50% lethal concentration) [1]: 5.4 µg/mL (≈ 8.59 µM)

C=C(C)[C@@H]1CC[C@@]2(C)CC1c1c(O)c3c(c(CC=C(C)C)c1O2)O[C@]12C(=C[C@@H]4CC1C(C)(C)O[C@]2(C/C=C(/C)C(=O)O)C4=O)C3=O [Gh-2603-1, epigambogellic acid]
IC50 [1]: 0.26 µg/mL (≈ 0.414 µM) | IC50 [2]: 1.6 µg/mL (≈ 2.54 µM) | CC50 [2]: 3.7 µg/mL (≈ 5.88 µM) | IC50 [3]: 2.2 µg/mL (≈ 3.5 µM) | CC50 [3]: 4.2 µg/mL (≈ 6.68 µM) | IC50 [4]: 1.3 µg/mL (≈ 2.07 µM) | CC50 [4]: 3.1 µg/mL (≈ 4.93 µM) | IC50 [5]: 1 µg/mL (≈ 1.59 µM) | CC50 [5]: 2.9 µg/mL (≈ 4.61 µM) | IC50 [6]: 0.036 µg/mL (≈ 0.0573 µM) | CC50 [6]: 0.34 µg/mL (≈ 0.541 µM) | IC50 [7]: 1 µg/mL (≈ 1.59 µM) | CC50 [7]: 3.3 µg/mL (≈ 5.25 µM)

C=C(C)C1CC[C@]2(C)C[C@H]1c1c(O)c3c(c(CC=C(C)C)c1O2)O[C@]12C(=CC4CC1C(C)(C)O[C@]2(C/C=C(/C)C(=O)O)C4=O)C3=O (stereo partly shown) [Gh-2603-2, gambogellic acid]
IC50 [1]: 0.14 µg/mL (≈ 0.223 µM) | IC50 [2]: 1.4 µg/mL (≈ 2.23 µM) | CC50 [2]: 3.9 µg/mL (≈ 6.2 µM) | IC50 [3]: 2.2 µg/mL (≈ 3.5 µM) | CC50 [3]: 4.2 µg/mL (≈ 6.68 µM) | IC50 [4]: 1.5 µg/mL (≈ 2.39 µM) | CC50 [4]: 3.6 µg/mL (≈ 5.73 µM) | IC50 [5]: 0.93 µg/mL (≈ 1.48 µM) | CC50 [5]: 2.4 µg/mL (≈ 3.82 µM) | IC50 [6]: 0.2 µg/mL (≈ 0.318 µM) | CC50 [6]: 0.47 µg/mL (≈ 0.748 µM) | IC50 [7]: 0.65 µg/mL (≈ 1.03 µM) | CC50 [7]: 3.5 µg/mL (≈ 5.57 µM)

CC(C)=CCC[C@]1(C)C=Cc2c(O)c3c(c(CC=C(C)C)c2O1)O[C@]12C(=C[C@@H]4CC1C(C)(C)OC2(C/C=C(/C)C(=O)O)C4=O)C3=O [Gh-2605, gambogic acid]
LC50 (50% lethal concentration) [1]: 1.6 µg/mL (≈ 2.54 µM)

CC(C)=CCC[C@@]1(C)C=Cc2c(O)c3c(c(CC=C(C)C)c2O1)O[C@]12C(=C[C@@H]4CC1C(C)(C)O[C@]2(C/C=C(/C)C(=O)O)C4=O)C3=O [Gh-2606, epigambogic acid]
LC50 (50% lethal concentration) [1]: 1.4 µg/mL (≈ 2.23 µM) | CC50 [2]: 2 µg/mL (≈ 3.18 µM) | IC50 [6]: 0.1 µg/mL (≈ 0.159 µM) | CC50 [7]: 3 µg/mL (≈ 4.77 µM)

CC(C)=CCc1c2c(c(O)c3c1O[C@@]1(C)CCC4C3C1C4(C)C)C(=O)C1=C[C@@H]3CC4C(C)(C)O[C@](C/C=C(/C)C(=O)O)(C3=O)[C@@]14O2 [Gh-2607-1A, epiformoxanthone B]
LC50 (50% lethal concentration) [1]: 1.5 µg/mL (≈ 2.39 µM)

CC(C)=CCc1c2c(c(O)c3c1O[C@]1(C)CCC4[C@H]3C1C4(C)C)C(=O)C1=CC3CC4C(C)(C)O[C@](C/C=C(/C)C(=O)O)(C3=O)[C@@]14O2 [Gh-2607-B, formoxanthone B]
LC50 (50% lethal concentration) [1]: 1.6 µg/mL (≈ 2.54 µM) | IC50 [1]: 0.07 µg/mL (≈ 0.111 µM) | IC50 [2]: 0.3 µg/mL (≈ 0.477 µM) | CC50 [2]: 1 µg/mL (≈ 1.59 µM) | IC50 [3]: 0.1 µg/mL (≈ 0.159 µM) | IC50 [4]: 0.1 µg/mL (≈ 0.159 µM) | IC50 [6]: 0.1 µg/mL (≈ 0.159 µM) | CC50 [7]: 4 µg/mL (≈ 6.36 µM)

CC(C)=CCC/C(C)=C/Cc1c(O)c(CC=C(C)C)c2c(c1O)C(=O)C1=C[C@@H]3CC4C(C)(C)O[C@](C/C=C(\C)C(=O)O)(C3=O)[C@@]14O2 [Gh-2642, isogambogenic acid]
LC50 (50% lethal concentration) [1]: 11 µg/mL (≈ 17.4 µM) | IC50 [3]: 3 µg/mL (≈ 4.76 µM) | IC50 [5]: 9 µg/mL (≈ 14.3 µM)

CC(C)=CCc1c2c(c(O)c3c1O[C@]14C(=C[C@@H]5CC1C(C)(C)OC4(C/C=C(/C)C(=O)O)C5=O)C3=O)C=C[C@@](C)(CCC(O)C(C)(C)O)O2 (stereo partly shown) [Gh-3261, formoxanthone J]
CC50 [8]: 1.4 µg/mL (≈ 2.11 µM) | CC50 [2]: 3.9 µg/mL (≈ 5.88 µM) | CC50 [3]: 2.8 µg/mL (≈ 4.22 µM) | CC50 [4]: 0.31 µg/mL (≈ 0.468 µM) | CC50 [5]: 7 µg/mL (≈ 10.6 µM) | CC50 [6]: 0.5 µg/mL (≈ 0.754 µM) | CC50 [7]: 2.8 µg/mL (≈ 4.22 µM)

CC(C)=CCc1c2c(c(O)c3c1O[C@]14C(=C[C@@H]5CC1C(C)(C)OC4(C/C=C(/C)C(=O)O)C5=O)C3=O)C=C[C@](C)(CCC(O)C(C)(C)O)O2 (stereo partly shown) [Gh-3271, epiformoxanthone J]
CC50 [8]: 1.5 µg/mL (≈ 2.26 µM) | CC50 [2]: 5.8 µg/mL (≈ 8.75 µM) | CC50 [3]: 0.62 µg/mL (≈ 0.935 µM) | CC50 [4]: 0.35 µg/mL (≈ 0.528 µM) | CC50 [5]: 17.1 µg/mL (≈ 25.8 µM) | CC50 [6]: 0.51 µg/mL (≈ 0.769 µM) | CC50 [7]: 4.6 µg/mL (≈ 6.94 µM)

CC(C)=CCC/C(C)=C/Cc1c(O)c(CC=C(C)C)c2c(c1O)C(=O)C1=C[C@@H]3CC4C(C)(C)OC(CC=C(C)C)(C3=O)[C@@]14O2 [Gh-4301, desoxygambogenin]
LC50 (50% lethal concentration) [1]: 1.3 µg/mL (≈ 2.16 µM) | CC50 [4]: > 100 µg/mL | CC50 [5]: > 100 µg/mL
